Drawing on patent US11149036B2, “3-(1H-pyrazol-4-yl)pyridine allosteric modulators of the M4 muscarinic acetylcholine receptor” (Merck Sharp & Dohme Corp., priority 2017, dated 2021), this text covers EC50 for 25 molecules.

The target in this assay is T1, human M4 muscarinic acetylcholine receptor (Homo sapiens, UniProt P08173).
T1 construct: expressed in transfected cells; host or cells: CHO-K1
T1 sequence (P08173 1-479): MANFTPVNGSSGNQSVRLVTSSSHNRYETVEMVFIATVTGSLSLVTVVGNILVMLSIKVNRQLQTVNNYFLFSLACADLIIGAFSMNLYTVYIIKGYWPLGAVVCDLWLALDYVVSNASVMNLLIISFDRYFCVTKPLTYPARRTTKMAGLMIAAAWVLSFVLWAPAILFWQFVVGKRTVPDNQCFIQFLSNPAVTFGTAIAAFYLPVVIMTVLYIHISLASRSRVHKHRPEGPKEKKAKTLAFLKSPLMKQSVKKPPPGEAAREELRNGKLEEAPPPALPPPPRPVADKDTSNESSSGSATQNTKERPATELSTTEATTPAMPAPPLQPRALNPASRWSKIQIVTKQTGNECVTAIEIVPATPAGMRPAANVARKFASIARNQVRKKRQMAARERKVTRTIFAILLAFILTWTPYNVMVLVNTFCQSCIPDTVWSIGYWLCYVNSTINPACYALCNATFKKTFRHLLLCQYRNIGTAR
Briefly: human FLIPR-based M4 PAM assay (CHO-K1 cells with human M4 receptor and Gaqi5, calcium dye fluorescence). Type of assay: cell-based. The conditions noted are these: inflection point (IP) of dose response curve, acetylcholine added at 20% of maximum response, read-out: M4 FLIPPR Hu IP. As to the method: (§1) In a typical experiment the M4 muscarinic acetylcholine receptor modulating activity of the compounds of the present invention was determined in accordance with the following experimental method. CHO-K1 cells stably transfected with human M4 receptor and chimeric G-protein Gaqi5 (Coward P, et al., Analytical Biochemistry, 270:242-248 (1999)) are thawed from liquid N2 storage, resuspended in growth medium, plated in black, clear bottom 384 well plates, and incubated 16-20 hours at 37° C., 5% CO2. On the day of assay, growth medium is removed, the cells are washed 2 times with wash buffer, and cells are incubated in dye loading buffer at 37° C., 5% CO2 for ˜1 hour. Following dye loading the cell plates are placed in a FLIPR Tetra instrument and while monitoring dye fluorescence (excitation 470-495 […]), 10 uL of test substance at increasing concentrations is added, and fluorescence values are recorded for 4 min. Next, 10 uL of acetylcholine is added (final concentration calculated so as to achieve 20% of the maximum acetycholine response), and the fluorescence reading is continued for 3.5 min. In some cases, a third addition of acetylcholine (final concentration calculated to achieve 70% of the maximal acetylcholine response) is performed. The resulting dose response curves are fit to a 4 parameter logistic equation and the final result is determined as the inflection point (IP) of the curve
as §1, with “CHO-K1” for “In a typical experiment the M4 muscarinic acetylcholine receptor modulating activity of the compounds of the present invention was determined in accordance with the following experimental method. CHO-K1”, “Gaqi5” for “Gaqi5 (Coward P, et al., Analytical Biochemistry, 270:242-248 (1999))”, “performed.” for “performed. The resulting dose response curves are fit to a 4 parameter logistic equation and the final result is determined as the inflection point (IP) of the curve”
As to `N#Cc1ccc(-c2cnn(CC3(F)CCCC3)c2)c(-c2ccn3ncnc3c2)n1` [Example 43, 6-([1,2,4]triazolo[1,5-a]pyridin-7-yl)-5-(1-((1-fluorocyclopentyl)methyl)-1H-pyrazol-4-yl)picolinonitrile], the EC50 was found to be 29 nM. With `Cc1nnc2cc(-c3nc(C#N)ccc3-c3cnn(CC4(F)CCCC4)c3)ccn12` [Example 44, 5-(1-((1-fluorocyclopentyl)methyl)-1H-pyrazol-4-yl)-6-(3-methyl-[1,2,4]triazolo [4,3-a]pyridin-7-yl)picolinonitrile] the figure was 18 nM. With `CN1C(=O)c2cc(-c3nc(C#N)ccc3-c3cnn(CC4(F)CCCC4)c3)ccc2C1(C)C` [Example 45, 5-(1-((1-fluorocyclopentyl)methyl)-1H-pyrazol-4-yl)-6-(1,1,2-trimethyl-3-oxoisoindolin-5-yl)picolinonitrile] the figure was 64 nM; with `CC1(C)NC(=O)c2cc(-c3nc(C#N)ccc3-c3cnn(CC4(F)CCCC4)c3)ccc21` [Example 46, 6-(1,1-dimethyl-3-oxoisoindolin-5-yl)-5-(1-((1-fluorocyclopentyl)methyl)-1H-pyrazol-4-yl)picolinonitrile49], 102 nM. Under `N#Cc1ccc(-c2cnn(CC3(F)CCCC3)c2)c(-c2cnc3c(c2)C(=O)N(CCF)C3)n1` [Example 47, 5-(1-((1-fluorocyclopentyl)methyl)-1H-pyrazol-4-yl)-6-(6-(2-fluoroethyl)-5-oxo-6,7-dihydro-5H-pyrrolo[3,4-b]pyridin-3-yl)picolinonitrile] stands 56 nM; under `Cn1cc2ccc(-c3nc(C#N)ccc3-c3cnn(CC4(F)CCCC4)c3)cc2n1` [Example 48, 5-(1-((1-fluorocyclopentyl)methyl)-1H-pyrazol-4-yl)-6-(2-methyl-2H-indazol-6-yl)picolinonitrile], 41 nM; under `Cc1nc2cc(-c3nc(C#N)ccc3-c3cnn(CC4(F)CCCC4)c3)ccc2o1` [Example 49, 5-(1-((1-fluorocyclopentyl)methyl)-1H-pyrazol-4-yl)-6-(2-methylbenzo[d]oxazol-5-yl)picolinonitrile], 107 nM. For `N#Cc1ccc(-c2cnn(CC3(F)CCCC3)c2)c(-c2ccn3ccnc3c2)n1` [Example 50, 5-(1-((1-fluorocyclopentyl)methyl)-1H-pyrazol-4-yl)-6-(imidazo[1,2-a]pyridin-7-yl)picolinonitrile], the EC50 was determined as 27 nM. Under `N#Cc1ccc(-c2cnn(CC3(F)CCCC3)c2)c(-c2ccn3cc(C(F)(F)F)nc3c2)n1` [Example 51, 5-(1-((1-fluorocyclopentyl)methyl)-1H-pyrazol-4-yl)-6-(2-(trifluoromethyl)imidazo [1,2-a]pyridin-7-yl)picolinonitrile] stands 22 nM; under `N#Cc1ccc(-c2cnn(CC3(F)CCCC3)c2)c(-c2ccn3cc(Cl)nc3c2)n1` [Example 52, 6-(2-chloroimidazol[1,2-a]pyridin-7-yl)-5-(1-((1-fluorocyclopentyl)methyl)-1H-pyrazol-4-yl)picolinonitrile], 10 nM; under `N#Cc1ccc(-c2cnn(CC3(F)CCCC3)c2)c(-c2cnc3oc(C4CC4)nc3c2)n1` [Example 53, 6-(2-cyclopropyloxazolo[5,4-b]pyridin-6-yl)-5-(1-((1-fluorocyclopentyl)methyl)-1H-pyrazol-4-yl)picolinonitrile], 76 nM.

For the molecule `N#Cc1ccc(-c2cnn(CC3(F)CCCC3)c2)c(-c2ccn3cc(C4CC4)nc3c2)n1` [Example 54, 6-(2-cyclopropylimidazo[1,2-a]pyridin-7-yl)-5-(1-((1-fluorocyclopentyl)methyl)-1H-pyrazol-4-yl)picolinonitrile], the EC50 is 36 nM. With `N#Cc1ccc(-c2cnn(CC3(F)CCCC3)c2)c(-c2cnc3c(c2)C(=O)N(CC2CC2)C3)n1` [Example 55, 6-(6-(cyclopropylmethyl)-5-oxo-6,7-dihydro-5H-pyrrolo[3,4-b]pyridin-3-yl)-5-(1-((1-fluorocyclopentyl)methyl)-1H-pyrazol-4-yl)picolinonitrile] the figure was 35 nM.

As to `Cn1nnc2cc(-c3nc(C#N)ccc3-c3cnn(CC4(F)CCCC4)c3)ccc21` [Example 56, 5-(1-((1-fluorocyclopentyl)methyl)-1H-pyrazol-4-yl)-6-(1-methyl-1H-benzo[1,2,3]triazol-5-yl)picolinonitrile], the EC50 was determined as 41 nM. Regarding `CCc1cn2ccc(-c3nc(C#N)ccc3-c3cnn(CC4(F)CCCC4)c3)cc2n1` [Example 57, 6-(2-ethylimidazo[1,2-a]pyridin-7-yl)-5-(1-((1-fluorocyclopentyl)methyl)-1H-pyrazol-4-yl)picolinonitrile], the EC50 came out at 16 nM. For the molecule `N#Cc1ccc(-c2cnn(CC3(F)CCCC3)c2)c(-c2ccn3cc(C(F)F)nc3c2)n1` [Example 58, 6-(2-(difluoromethyl)imidazo [1,2-a]pyridin-7-yl)-5-(1-((1-fluorocyclopentyl)methyl)-1H-pyrazol-4-yl)picolinonitrile], the EC50 came to 15 nM.

Take `Cc1nc2cc(-c3nc(C#N)ccc3-c3cnn(CC4(F)CCCC4)c3)ccc2n1C` [Example 59, 6-(1,2-dimethyl-1H-benzo[d]imidazol-5-yl)-5-(1-((1-fluorocyclopentyl)methyl)-1H-pyrazol-4-yl)picolinonitrile]: the EC50 was determined as 43 nM. With `Cc1nc2ccc(-c3nc(C#N)ccc3-c3cnn(CC4(F)CCCC4)c3)cn2n1` [Example 60, 5-(1-((1-fluorocyclopentyl)methyl)-1H-pyrazol-4-yl)-6-(2-methyl-[1,2,4]triazolo[1,5-a]pyridin-6-yl)picolinonitrile] the figure was 110 nM; with `Cc1nc2cc(-c3nc(C#N)ccc3-c3cnn(CC4(F)CCCC4)c3)ccn2n1` [Example 61, 5-(1-((1-fluorocyclopentyl)methyl)-1H-pyrazol-4-yl)-6-(2-methyl-[1,2,4]triazolo[1,5-a]pyridin-7-yl)picolinonitrile], 37 nM. With `N#Cc1ccc(-c2cnn(CC3(F)CCCC3)c2)c(-c2ccc3conc3c2)n1` [Example 62, 6-(benzo[c]isoxazol-6-yl)-5-(1-((1-fluorocyclopentyl)methyl)-1H-pyrazol-4-yl)picolinonitrile] the figure was 62 nM. Under `Cc1nc2cc(-c3nc(C#N)ccc3-c3cnn(CC4(F)CCCC4)c3)cnc2n1C` [Example 63, 6-(2,3-dimethyl-3H-imidazo[4,5-b]pyridin-6-yl)-5-(1-((1-fluorocyclopentyl)methyl)-1H-pyrazol-4-yl)picolinonitrile] stands 63 nM; under `COc1cc2ccc(-c3nc(C#N)ccc3-c3cnn(CC4(F)CCCC4)c3)cn2n1` [Example 64, 5-(1-((1-fluorocyclopentyl)methyl)-1H-pyrazol-4-yl)-6-(2-methoxypyrazolo[1,5-a]pyridin-6-yl)picolinonitrile], 22 nM; under `CCc1nc2cc(-c3nc(C#N)ccc3-c3cnn(CC4(F)CCCC4)c3)ccn2n1` [Example 65, 6-(2-ethyl-[1,2,4]triazolo[1,5-a]pyridin-7-yl)-5-(1-((1-fluorocyclopentyl)methyl)-1H-pyrazol-4-yl)picolinonitrile], 28 nM. For the molecule `N#Cc1ccc(-c2cnn(CC3(F)CCCC3)c2)c(-c2ccn3nc(CO)nc3c2)n1` [Example 66, 5-(1-((1-fluorocyclopentyl)methyl)-1H-pyrazol-4-yl)-6-(2-(hydroxymethyl)-[1,2,4]triazolo[1,5-a]pyridin-7-yl)picolinonitrile], the EC50 worked out at 89 nM. With `COc1cc2ccc(-c3nc(C#N)ccc3-c3cnn(C[C@H]4CC[C@H](F)C4)c3)cc2nn1` [Example 67, 5-(1-(((1S,3S)-3-fluorocyclopentyl)methyl)-1H-pyrazol-4-yl)-6-(3-methoxycinnolin-7-yl)picolinonitrile] the figure was 64 nM.
